# Assay results reported in patent US8652444B2, “Oral compositions containing biphenol antibacterial compounds” (Colgate-Palmolive Company, priority 2004, dated 2014).
# Legend:
# Format in all cases: cell-based
# B. subtilis = assay: MIC50 against bacteria; details: unit assumed
# Procedure: (§1) MIC50 values against a variety of bacteria are measured for the dipropyl and dibutyl derivatives and compared to those for triclosan.
# F. nucleatum = assay: MIC50 against bacteria; details: unit assumed
# Procedure: as §1
# S. aureus = assay: MIC50 against bacteria; details: unit assumed
# Procedure: as §1
# P. gingivalis = assay: MIC50 against bacteria; details: unit assumed
# Procedure: as §1
# P. intermedia = assay: MIC50 against bacteria; details: unit assumed
# Procedure: as §1
# P. nigresc. = assay: MIC50 against bacteria; details: unit assumed
# Procedure: as §1
# E. corrodens = assay: MIC50 against bacteria; details: unit assumed
# Procedure: as §1
# M. catarrhalis = assay: MIC50 against bacteria; details: unit assumed
# Procedure: as §1
# S. mutans = assay: MIC50 against bacteria; details: unit assumed
# Procedure: as §1
# A. actino. = assay: MIC50 against bacteria; details: unit assumed
# Procedure: as §1
# B. cereus = assay: MIC50 against bacteria; details: unit assumed
# Procedure: as §1
# S. gordonii = assay: MIC50 against bacteria; details: unit assumed
# Procedure: as §1
# certain oral bacteria = assay: MIC50 against certain oral bacteria, comparison
# Procedure: as §1
# [1] = system: staphylococcus, streptococcus, and bacillus bacteria; assay: MIC50 against a variety of bacteria, comparison; details: against a number of staphylococcus, streptococcus, and bacillus bacteria of Table I; comparable to triclosan
# Procedure: as §1
Compound,MIC50 (B. subtilis),MIC50 (F. nucleatum),MIC50 (S. aureus),MIC50 (P. gingivalis),MIC50 (P. intermedia),MIC50 (P. nigresc.),MIC50 (E. corrodens),MIC50 (M. catarrhalis),MIC50 (S. mutans),MIC50 (A. actino.),MIC50 (B. cereus),MIC50 (S. gordonii),MIC50 relative to an analogous compound containing propyl groups (certain oral bacteria),MIC50 relative to the dipropyl derivative [1]
"CCCCc1ccc(O)c(-c2cc(CCCC)ccc2O)c1 [dibutyl derivative, 5,5′-dibutyl-2,2′-dihydroxy-1,1′-biphenyl]",7.8 µg/mL,> 500 µg/mL,7.8 µg/mL,2 µg/mL,2 µg/mL,3.9 µg/mL,0.5 µg/mL,15.6 µg/mL,3.9 µg/mL,> 500 µg/mL,31.3 µg/mL,31.3 µg/mL,lower,over an order of magnitude less than that of the dipropyl derivative
"CCCc1ccc(O)c(-c2cc(CCC)ccc2O)c1 [dipropyl derivative, 5,5′-propyl-2,2′-dihydroxy-1,1′-biphenyl]",> 500 µg/mL,> 500 µg/mL,> 500 µg/mL,3.9 µg/mL,2 µg/mL,7.8 µg/mL,1 µg/mL,7.8 µg/mL,> 500 µg/mL,> 500 µg/mL,> 500 µg/mL,> 500 µg/mL,,
Oc1cc(Cl)ccc1Oc1ccc(Cl)cc1Cl [triclosan],2 µg/mL,1 µg/mL,2 µg/mL,0.5 µg/mL,1 µg/mL,3.9 µg/mL,< 0.001 µg/mL,< 0.001 µg/mL,7.8 µg/mL,0.125 µg/mL,15.6 µg/mL,7.8 µg/mL,,
